Where a SMILES comes first, the peptide text is derived from it. [ ]: non-standard residue; d: D form. The star is where a group is joined. Sta = CC(C)C[C@H](N)[C@@H](O)CC(=O)O; Isovaleryl = CC(C)CC(=O)*; Isobutyryl = CC(C)C(=O)*

In this assay the target is T1, Human renin (Homo sapiens, UniProt P00797).
T1 construct: Human plasma (lyophilized) was used as the source of human substrate and human renin; from tissue; host or cells: human plasma (lyophilized)
T1 sequence (P00797 67-406): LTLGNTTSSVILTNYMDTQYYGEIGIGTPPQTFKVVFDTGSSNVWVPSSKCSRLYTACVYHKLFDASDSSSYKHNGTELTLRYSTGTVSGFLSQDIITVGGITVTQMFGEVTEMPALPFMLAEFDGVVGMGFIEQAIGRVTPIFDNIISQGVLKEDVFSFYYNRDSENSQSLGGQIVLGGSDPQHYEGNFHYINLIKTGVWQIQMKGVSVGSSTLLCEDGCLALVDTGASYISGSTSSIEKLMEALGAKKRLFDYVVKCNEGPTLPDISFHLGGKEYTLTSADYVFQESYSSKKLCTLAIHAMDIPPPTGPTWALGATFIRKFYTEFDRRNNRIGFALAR
Briefly: human renin assay, radioimmunoassay of angiotensin I in human plasma (Haber et al.). The note with it: for IC50: lyophilized human plasma as source of human substrate and human renin, read-out: I50 (M) Human renin. Format: biochemical. On the procedure: In order to illustrate the pig renin inhibition and human renin inhibition of the peptide inhibitor of Example 1, the peptide was evaluated in the pig renin inhibition assay described in Rich et al., J. Med. Chem. 23:27, 1980, and was further evaluated in the human renin assay based on the method of Haber et al., J. Clin. Endocrinol. 29:1349, 1969. The latter method employs a radioimmunoassay technique to measure the amount of angiotensin I product created by renin cleavage of its substrate. Human plasma (lyophilized) was used as the source of human substrate and human renin. I50 values were obtained by plotting data at several inhibitor concentrations.

For the molecule `CC(C)C[C@H](NC(=O)[C@H](Cc1c[nH]cn1)NC(=O)[C@H](Cc1ccccc1)NC(=O)[C@@H]1CCCN1C(=O)[C@H](Cc1c[nH]cn1)NC(=O)C(C)C)[C@@H](O)CC(=O)N[C@H](C(=O)N[C@@H](Cc1c[nH]cn1)C(=O)NCC(N)=O)C(C)C` [N-Isobutyryl-L-histidyl-L-prolyl-L-phenylalanyl-L-histidyl-(3S,4S)-statyl-L-valyl-L-histidyl-L-glycyl amide] (Isobutyryl-HPFH[Sta]VHG-NH2), the IC50 turned out to be 7.3e-08 M. Same read-out and setting: as for `CC[C@H](C)[C@H](NC(=O)C[C@H](O)[C@H](CC(C)C)NC(=O)[C@H](Cc1c[nH]cn1)NC(=O)[C@H](Cc1ccccc1)NC(=O)[C@@H]1CCCN1C(=O)[C@H](Cc1c[nH]cn1)NC(=O)CC(C)C)C(=O)N[C@@H](Cc1c[nH]cn1)C(N)=O` [iso-Valeryl-His-Pro-Phe-His-Sta-Ile-His-NH2] (Isovaleryl-HPFH[Sta]IH-NH2), the figure is 7.3e-09 M. On to `CC(C)CC(=O)N[C@H](C(=O)N[C@H](C(=O)N[C@@H](CC(C)C)[C@@H](O)CC(=O)N[C@@H](C)C(=O)N[C@@H](CC(C)C)[C@@H](O)CC(=O)O)C(C)C)C(C)C` [Pepstatin, iso-valeryl-Val--Val--Sta--Ala--Sta, reference compound] (Isovaleryl-VV[Sta]A[Sta]-OH), for which the inhibition at 1 µM (at 1.0 × 10^-6 M) amounted to 20%.

The inhibition is the share of the control response that was lost under treatment. A high value points to strong suppression.

Values taken from US4470971A, “Renin inhibitory peptides having His^13” (Merck & Co., Inc., priority 1982, dated 1984).
